# Data from article PMC4631615 (Bipolar disorders, 2015).
# Several values for one entry are separate records, joined by “and”; a condition that tells them apart may be missing. Equal values may be shown once. Marks after values point to notes of the source that are not given here.
# What was measured:
# mouse = details: source not given; cited from earlier work
# pregnant SWV mice [1] = assay: Maternal body weight and weight gain, teratogenicity study; assay type: in vivo, mouse; details: mean ± SD
# SWV mouse fetuses [2] = assay: Skeletal examination of fetuses; assay type: in vivo
# pregnant SWV mice [3] = assay: Pregnancy outcomes; assay type: in vivo, mouse
# SWV mouse fetuses [4] = tested on: SWV mouse fetuses
# [5] = 1/6.54 of LD50 (RIS 9.6, OLA 32.1, VCD 152.8 mg/kg) p.o. GD 4–17
# [6] = 1/13.1 of LD50 (OLA 16.05 mg/kg) p.o. GD 4–17
# [7] = 1/6.54 of LD50 (RIS 9.6, OLA 32.1, VCD 152.8 mg/kg) p.o. GD 4–17, mean ± SD
smiles,measurement,setting,value
"Cc1cc2c(s1)Nc1ccccc1N=C2N1CCN(C)CC1 [OLA, 2-methyl-4-(4-methyl-1-piperazinyl)-10H-thieno(2,3-b)([1],[5])benzodiazepine]","LD50 mouse, oral",mouse,210 mg/kg
same,Dams net weight gain,pregnant SWV mice [1]; [5],5.6 ± 2.0 ^a grams
same,Dams weight GD 18,pregnant SWV mice [1]; [5],34.9 grams and 34.9 ± 4.0 ^a grams
same,Dams weight gain,pregnant SWV mice [1]; [5],8.0 ± 3.5 ^a grams
same,Dams net weight gain,pregnant SWV mice [1]; [6],8.8 ± 1.8 grams
same,Dams weight GD 18,pregnant SWV mice [1]; [6],46.5 ± 3.6 grams
same,Dams weight gain,pregnant SWV mice [1]; [6],18.7 ± 3.8 grams
same,"All vertebra: incomplete ossification, affected fetuses",SWV mouse fetuses [2]; [5],3
same,"All vertebra: incomplete ossification, affected litters",SWV mouse fetuses [2]; [5],1
same,"Cervical vertebra: ossified fusion of centrums, affected fetuses",SWV mouse fetuses [2]; [5],0
same,"Fetuses with skeletal abnormalities, %",SWV mouse fetuses [2]; [5],79.2%
same,"Fibula: bent, affected fetuses",SWV mouse fetuses [2]; [5],0
same,"Metacarpal: absent ossification, affected fetuses",SWV mouse fetuses [2]; [5],12
same,"Metacarpal: absent ossification, affected litters",SWV mouse fetuses [2]; [5],8
same,"Metacarpal: incomplete ossification, affected fetuses",SWV mouse fetuses [2]; [5],6
same,"Metacarpal: incomplete ossification, affected litters",SWV mouse fetuses [2]; [5],3
same,"Metatarsal: absent ossification, affected fetuses",SWV mouse fetuses [2]; [5],14
same,"Metatarsal: absent ossification, affected litters",SWV mouse fetuses [2]; [5],9
same,"Metatarsal: incomplete ossification, affected fetuses",SWV mouse fetuses [2]; [5],4
same,"Metatarsal: incomplete ossification, affected litters",SWV mouse fetuses [2]; [5],3
same,"Ribs: absent 13th, affected fetuses",SWV mouse fetuses [2]; [5],1/1
same,"Ribs: absent 13th, affected litters",SWV mouse fetuses [2]; [5],1/1
same,"Ribs: branched, affected fetuses",SWV mouse fetuses [2]; [5],0
same,"Skull: incomplete ossification, affected fetuses",SWV mouse fetuses [2]; [5],1/1
same,"Skull: incomplete ossification, affected litters",SWV mouse fetuses [2]; [5],1/1
same,"Skull: interparietal incomplete ossification, affected fetuses",SWV mouse fetuses [2]; [5],1/1
same,"Skull: interparietal incomplete ossification, affected litters",SWV mouse fetuses [2]; [5],1/1
same,"Skull: parietal incomplete ossification, affected fetuses",SWV mouse fetuses [2]; [5],0
same,"Skull: supraoccipital incomplete ossification, affected fetuses",SWV mouse fetuses [2]; [5],1/1
same,"Skull: supraoccipital incomplete ossification, affected litters",SWV mouse fetuses [2]; [5],1/1
same,"Sternebra: absent ossification, affected fetuses",SWV mouse fetuses [2]; [5],8
same,"Sternebra: absent ossification, affected litters",SWV mouse fetuses [2]; [5],5
same,"Sternebra: incomplete ossification, affected fetuses",SWV mouse fetuses [2]; [5],8
same,"Sternebra: incomplete ossification, affected litters",SWV mouse fetuses [2]; [5],7
same,"Sternebra: misaligned, affected fetuses",SWV mouse fetuses [2]; [5],0
same,"Sternebra: misshapen, affected fetuses",SWV mouse fetuses [2]; [5],0
same,"Whole skeletal system: incomplete ossification, affected fetuses",SWV mouse fetuses [2]; [5],7
same,"Whole skeletal system: incomplete ossification, affected litters",SWV mouse fetuses [2]; [5],3
same,"All vertebra: incomplete ossification, affected fetuses",SWV mouse fetuses [2]; [6],0
same,"Cervical vertebra: ossified fusion of centrums, affected fetuses",SWV mouse fetuses [2]; [6],0
same,"Fibula: bent, affected fetuses",SWV mouse fetuses [2]; [6],0
same,"Metacarpal: absent ossification, affected fetuses",SWV mouse fetuses [2]; [6],1/1
same,"Metacarpal: absent ossification, affected litters",SWV mouse fetuses [2]; [6],1/1
same,"Metacarpal: incomplete ossification, affected fetuses",SWV mouse fetuses [2]; [6],47
same,"Metacarpal: incomplete ossification, affected litters",SWV mouse fetuses [2]; [6],12
same,"Metatarsal: absent ossification, affected fetuses",SWV mouse fetuses [2]; [6],8/8 ^b
same,"Metatarsal: absent ossification, affected litters",SWV mouse fetuses [2]; [6],8/8 ^b
same,"Metatarsal: incomplete ossification, affected fetuses",SWV mouse fetuses [2]; [6],20
same,"Metatarsal: incomplete ossification, affected litters",SWV mouse fetuses [2]; [6],8
same,"Ribs: absent 13th, affected fetuses",SWV mouse fetuses [2]; [6],0
same,"Ribs: branched, affected fetuses",SWV mouse fetuses [2]; [6],0
same,"Skull: incomplete ossification, affected fetuses",SWV mouse fetuses [2]; [6],0
same,"Skull: interparietal incomplete ossification, affected fetuses",SWV mouse fetuses [2]; [6],4
same,"Skull: interparietal incomplete ossification, affected litters",SWV mouse fetuses [2]; [6],3
same,"Skull: parietal incomplete ossification, affected fetuses",SWV mouse fetuses [2]; [6],3
same,"Skull: parietal incomplete ossification, affected litters",SWV mouse fetuses [2]; [6],2
same,"Skull: supraoccipital incomplete ossification, affected fetuses",SWV mouse fetuses [2]; [6],1/1
same,"Skull: supraoccipital incomplete ossification, affected litters",SWV mouse fetuses [2]; [6],1/1
same,"Sternebra: absent ossification, affected fetuses",SWV mouse fetuses [2]; [6],4/4
same,"Sternebra: absent ossification, affected litters",SWV mouse fetuses [2]; [6],4/4
same,"Sternebra: incomplete ossification, affected fetuses",SWV mouse fetuses [2]; [6],25
same,"Sternebra: incomplete ossification, affected litters",SWV mouse fetuses [2]; [6],11
same,"Sternebra: misaligned, affected fetuses",SWV mouse fetuses [2]; [6],0
same,"Sternebra: misshapen, affected fetuses",SWV mouse fetuses [2]; [6],0
same,"Whole skeletal system: incomplete ossification, affected fetuses",SWV mouse fetuses [2]; [6],0
same,Fetus weight,pregnant SWV mice [3]; [7],0.66 ± 0.09 ^a g
same,Resorptions/litter,pregnant SWV mice [3]; [7],9.6 ± 3.9 ^a
same,Fetus weight,"pregnant SWV mice [3]; 1/13.1 of LD50 (OLA 16.05 mg/kg) p.o. GD 4–17, mean ± SD",0.83 ± 0.10 ^a g
same,Embryos resorbed,"pregnant SWV mice [3]; 1/13.1 of LD50 (OLA 16.05 mg/kg, low dose) p.o. GD 4–17",15%
same,Overall teratogenicity under the experimental conditions,"SWV mouse fetuses [4]; SWV mice, p.o. GD 4–17, doses as fractions of LD50",the most teratogenic of the three test drugs
same,"Dilated brain ventricles, affected litters","SWV mouse fetuses [4]; female, SWV, mouse, in vivo",2/2
same,"Dilated renal pelvis, affected litters","SWV mouse fetuses [4]; female, SWV, mouse, in vivo",2/2
same,"Exencephaly, affected fetuses","SWV mouse fetuses [4]; female, SWV, mouse, in vivo",0
same,"Malposition stomach, affected fetuses","SWV mouse fetuses [4]; female, SWV, mouse, in vivo",0
same,"Right aortic arch, affected fetuses","SWV mouse fetuses [4]; female, SWV, mouse, in vivo",0
